In ChEMBL document CHEMBL4177521, “Therapeutic Potential of Fatty Acid Amide Hydrolase, Monoacylglycerol Lipase, and N-Acylethanolamine Acid Amidase Inhibitors” (J Med Chem, 2017):

Experiments:
[1] = Half life in mouse plasma; assay type: ADME, cell-free
[2] = Cmax in CD1 mouse plasma at 3 mg/kg, iv; assay type: ADME, organism-based; set-up: dose 3 mg/kg, route intravenous; conditions: in vivo
[3] = Half life in CD1 mouse plasma at 3 mg/kg, iv; assay type: ADME, organism-based
[4] = Half life in mouse liver microsomes; assay type: ADME, microsome
[5] = Half life in rat liver microsomes; assay type: ADME, microsome
[6] = Half life in rat plasma; assay type: ADME, cell-free
[7] = biological target: T1, Fatty-acid amide hydrolase 1 (Rattus norvegicus, UniProt P97612); experiment: Inhibition of Sprague-Dawley rat brain FAAH using [14C]anandamide as substrate by liquid scintillation counting method
T1 sequence (P97612 whole entry): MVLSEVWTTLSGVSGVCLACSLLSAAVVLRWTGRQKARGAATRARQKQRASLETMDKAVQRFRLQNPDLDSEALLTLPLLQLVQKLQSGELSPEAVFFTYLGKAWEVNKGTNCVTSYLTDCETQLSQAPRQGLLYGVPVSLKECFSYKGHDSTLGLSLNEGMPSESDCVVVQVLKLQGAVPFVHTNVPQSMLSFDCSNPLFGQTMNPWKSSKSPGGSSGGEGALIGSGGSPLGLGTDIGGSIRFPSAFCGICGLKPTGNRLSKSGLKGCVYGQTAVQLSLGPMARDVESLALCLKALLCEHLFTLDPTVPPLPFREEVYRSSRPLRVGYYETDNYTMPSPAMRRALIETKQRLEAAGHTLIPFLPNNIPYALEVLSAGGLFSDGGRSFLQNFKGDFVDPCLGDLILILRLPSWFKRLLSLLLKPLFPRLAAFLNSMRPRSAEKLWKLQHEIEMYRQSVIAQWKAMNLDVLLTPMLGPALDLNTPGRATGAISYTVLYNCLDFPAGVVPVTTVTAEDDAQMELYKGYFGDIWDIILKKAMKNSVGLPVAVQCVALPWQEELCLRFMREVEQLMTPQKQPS

[8] = biological target: T2, Fatty-acid amide hydrolase 1 (Mus musculus, UniProt O08914); experiment: Inhibition of mouse brain membrane FAAH preincubated for 10 mins followed by 14C-oleamide substrate addition measured up to 60 mins by TLC analysis
T2 sequence (O08914 whole entry): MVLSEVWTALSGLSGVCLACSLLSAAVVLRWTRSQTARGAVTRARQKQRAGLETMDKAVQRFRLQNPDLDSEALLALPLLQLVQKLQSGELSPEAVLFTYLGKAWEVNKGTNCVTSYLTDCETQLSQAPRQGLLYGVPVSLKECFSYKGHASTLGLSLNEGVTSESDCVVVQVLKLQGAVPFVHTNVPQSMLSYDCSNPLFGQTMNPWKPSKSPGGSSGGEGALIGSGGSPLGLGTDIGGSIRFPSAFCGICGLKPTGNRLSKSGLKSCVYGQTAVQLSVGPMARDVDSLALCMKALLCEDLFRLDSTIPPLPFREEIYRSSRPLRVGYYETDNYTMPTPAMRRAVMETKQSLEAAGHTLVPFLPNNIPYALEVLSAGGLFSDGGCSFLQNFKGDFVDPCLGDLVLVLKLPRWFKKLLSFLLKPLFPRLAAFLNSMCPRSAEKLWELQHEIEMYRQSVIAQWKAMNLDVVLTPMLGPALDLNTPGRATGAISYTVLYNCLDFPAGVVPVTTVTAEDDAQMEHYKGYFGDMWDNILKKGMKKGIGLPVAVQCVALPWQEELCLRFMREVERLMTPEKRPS

[9] = biological target: T3, Fatty-acid amide hydrolase 1 (Homo sapiens, UniProt O00519); experiment: Inhibition of FAAH (unknown origin)
T3 sequence (O00519 whole entry): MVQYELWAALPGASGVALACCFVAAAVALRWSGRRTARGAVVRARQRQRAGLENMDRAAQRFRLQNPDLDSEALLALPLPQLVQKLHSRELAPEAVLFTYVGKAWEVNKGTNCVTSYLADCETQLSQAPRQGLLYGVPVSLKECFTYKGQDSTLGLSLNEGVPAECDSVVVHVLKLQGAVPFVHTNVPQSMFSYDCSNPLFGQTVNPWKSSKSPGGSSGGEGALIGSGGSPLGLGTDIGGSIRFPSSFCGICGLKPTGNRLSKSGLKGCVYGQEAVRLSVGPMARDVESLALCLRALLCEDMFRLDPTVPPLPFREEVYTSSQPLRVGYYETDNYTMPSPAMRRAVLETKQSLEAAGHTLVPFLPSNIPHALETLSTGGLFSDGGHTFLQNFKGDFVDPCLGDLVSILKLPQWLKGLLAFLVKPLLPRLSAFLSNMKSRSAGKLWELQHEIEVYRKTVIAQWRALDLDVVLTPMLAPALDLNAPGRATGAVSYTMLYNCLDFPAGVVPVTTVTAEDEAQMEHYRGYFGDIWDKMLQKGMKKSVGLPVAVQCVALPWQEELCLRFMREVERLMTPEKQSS

[10] = Oral bioavailability in monkey at 10 mg/kg; assay type: ADME, organism-based, Macaca mulatta; conditions: rhesus monkey, in vivo
[11] = Half life in monkey at 10 mg/kg, po or 1 mg/kg, iv; assay type: ADME, organism-based, Macaca mulatta; conditions: rhesus monkey, in vivo
[12] = biological target: Cannabinoid receptor 1 (Homo sapiens, UniProt P21554); experiment: Antagonist activity at CB1R (unknown origin); assay type: functional
[13] = biological target: T4, N-acylethanolamine-hydrolyzing acid amidase (Rattus norvegicus, UniProt Q5KTC7); experiment: Inhibition of rat NAAA expressed in HEK293 cells by LC/MS analysis; assay type: cell-based
T4 sequence (Q5KTC7 whole entry): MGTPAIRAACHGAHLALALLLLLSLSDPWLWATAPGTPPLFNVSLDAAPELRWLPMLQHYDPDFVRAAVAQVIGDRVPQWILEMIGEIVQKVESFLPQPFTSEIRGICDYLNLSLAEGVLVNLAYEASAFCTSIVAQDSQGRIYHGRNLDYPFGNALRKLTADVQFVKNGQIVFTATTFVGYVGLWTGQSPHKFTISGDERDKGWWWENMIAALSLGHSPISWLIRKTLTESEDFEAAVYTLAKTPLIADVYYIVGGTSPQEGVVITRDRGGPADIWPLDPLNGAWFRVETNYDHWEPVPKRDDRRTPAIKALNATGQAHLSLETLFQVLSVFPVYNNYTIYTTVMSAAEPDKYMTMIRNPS

[14] = biological target: T1, Fatty-acid amide hydrolase 1; experiment: Inhibition of rat FAAH expressed in HEK293 cells by LC/MS analysis; assay type: cell-based
[15] = biological target: T5, Monoglyceride lipase (Homo sapiens, UniProt Q99685); experiment: Inhibition of human MAGL
T5 sequence (Q99685 whole entry): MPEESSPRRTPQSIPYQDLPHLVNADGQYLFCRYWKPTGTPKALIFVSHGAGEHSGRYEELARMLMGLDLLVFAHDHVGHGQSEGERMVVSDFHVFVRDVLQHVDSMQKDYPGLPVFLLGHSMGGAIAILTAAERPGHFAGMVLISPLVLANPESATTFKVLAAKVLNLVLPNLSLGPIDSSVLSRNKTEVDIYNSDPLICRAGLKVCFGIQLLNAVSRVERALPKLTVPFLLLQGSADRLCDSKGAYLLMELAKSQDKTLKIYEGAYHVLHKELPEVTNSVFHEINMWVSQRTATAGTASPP

[16] = biological target: T2, Fatty-acid amide hydrolase 1; experiment: Inhibition of CD1 mouse FAAH
[17] = biological target: T6, N-acylethanolamine-hydrolyzing acid amidase (Homo sapiens, UniProt Q02083); experiment: Inhibition of NAAA (unknown origin)
T6 sequence (Q02083 whole entry): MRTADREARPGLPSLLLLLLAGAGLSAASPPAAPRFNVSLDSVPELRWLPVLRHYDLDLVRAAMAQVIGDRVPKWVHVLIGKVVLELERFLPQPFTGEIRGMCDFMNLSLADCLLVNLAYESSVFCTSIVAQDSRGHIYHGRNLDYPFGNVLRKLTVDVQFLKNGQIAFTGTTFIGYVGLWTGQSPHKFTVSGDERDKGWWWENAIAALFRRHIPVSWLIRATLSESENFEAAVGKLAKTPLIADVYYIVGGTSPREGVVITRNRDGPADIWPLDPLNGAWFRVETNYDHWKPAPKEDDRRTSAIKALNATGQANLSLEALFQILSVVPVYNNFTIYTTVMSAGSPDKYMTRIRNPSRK

Cannabinoid receptor 1, sequence (P21554 whole entry): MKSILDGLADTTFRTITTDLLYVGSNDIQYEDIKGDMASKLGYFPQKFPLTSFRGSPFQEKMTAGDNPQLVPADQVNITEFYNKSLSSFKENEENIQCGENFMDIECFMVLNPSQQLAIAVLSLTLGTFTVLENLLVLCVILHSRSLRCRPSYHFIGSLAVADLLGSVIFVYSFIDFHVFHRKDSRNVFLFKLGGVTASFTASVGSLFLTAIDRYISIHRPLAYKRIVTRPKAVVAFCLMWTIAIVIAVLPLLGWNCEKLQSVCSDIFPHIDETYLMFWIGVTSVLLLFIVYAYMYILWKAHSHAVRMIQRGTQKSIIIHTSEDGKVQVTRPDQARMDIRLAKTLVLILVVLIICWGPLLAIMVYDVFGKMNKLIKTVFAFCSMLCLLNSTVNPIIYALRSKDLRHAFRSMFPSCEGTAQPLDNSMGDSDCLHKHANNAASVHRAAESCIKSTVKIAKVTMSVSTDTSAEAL

O=C(N[C@H]1CNC1=O)OCCCCC1CCCCC1 showed a t1/2 [1] of 41 min, a Cmax [2] of 1610 ng/mL and a half-life [3] of 15 min. It also gave a half-life [4] of under 5 min, a half-life [5] of under 5 min and a t1/2 [6] of 12 min.

Molecule CCCCCCCCCCCCCCCCS(=O)(=O)F [HEXADECANESULFONYL FLUORIDE] has an IC50 [7] of 13 nM.

Work on CN(C)C(=O)n1nnnc1Cc1ccc(-c2ccccc2)cc1 yielded an IC50 [8] of 12.4 nM.

For COc1cc(NC(=O)C(=O)c2c(C)n(Cc3ccc(Cl)cc3)c3ccc(C)cc23)ccn1, the IC50 [9] was 10 nM, the bioavailability [10] was 14 to 21% and the half-life [11] was 1020 to 1200 min. It also gave an IC50 [12] of over 1000 nM.

In the case of O=C(CCc1ccc(-c2ccccc2)cc1)N1CCCC1, the IC50 [13] is reported as 2120 nM and the IC50 [14] is reported as over 100000 nM.

For CCCCCCCCCCCCCCCN=C=S, the IC50 [15] was over 10000 nM and the IC50 [12] was over 10000 nM.

With C=C(OC(=O)N1CCCCC1)c1ccc(-c2ccccc2)cc1 the IC50 [16] was 9 nM.

S=C=NCCCCCCCCCCc1ccccc1 showed an IC50 [9] of over 100000 nM and an IC50 [17] of 30 nM.
